As usually defined, the IC50 is the concentration that gives 50% inhibition.

Data on 20 molecules can be found in patent publication US9475817B2 (BRISTOL-MYERS SQUIBB COMPANY, priority 2012, dated 2016).

The target in experiment [1] is CK1δ (Homo sapiens (Human), UniProt P48730). As to the kind of experiment: CK1δ kinase assay (Caliper LabChip, fluoresceinated peptide substrate). It is filed as biochemical. Conditions: 200 pM CK1δ, 50 μM ATP, 1.5 μM peptide substrate, 22 hours room temperature. The method, then:
(§1) CK1ε and CK1δ Kinase Assays
(§2) The kinase assay was performed in V-bottom 384-well plates. […] The reaction was incubated at room temperature for 22 hours and terminated by adding 45 μl of 35 mM EDTA to each sample. […] Compounds were dissolved at 10 mM in dimethylsulfoxide (DMSO) and evaluated at eleven concentrations. IC50 values were derived by non-linear regression analysis.

In experiment [2] the target is CK1ε (Homo sapiens (Human), UniProt P49674). As to the kind of experiment: CK1ε kinase assay (Caliper LabChip, fluoresceinated peptide substrate). Type of experiment: biochemical. To be noted: 200 pM CK1ε, 50 μM ATP, 1.5 μM peptide substrate, 22 hours room temperature. As to the method:
as §1, §2

Sequence of CK1δ (P48730 whole entry): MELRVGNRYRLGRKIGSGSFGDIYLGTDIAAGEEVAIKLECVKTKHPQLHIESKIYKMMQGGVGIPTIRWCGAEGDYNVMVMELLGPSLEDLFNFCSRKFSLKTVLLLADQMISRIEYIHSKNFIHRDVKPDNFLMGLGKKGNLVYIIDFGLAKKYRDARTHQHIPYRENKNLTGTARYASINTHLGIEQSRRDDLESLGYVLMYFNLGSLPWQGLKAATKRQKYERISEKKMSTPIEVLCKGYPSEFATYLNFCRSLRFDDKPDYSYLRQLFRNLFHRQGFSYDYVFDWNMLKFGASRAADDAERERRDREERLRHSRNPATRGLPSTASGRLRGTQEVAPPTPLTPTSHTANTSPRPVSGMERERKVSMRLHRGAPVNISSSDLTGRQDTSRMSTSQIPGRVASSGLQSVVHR
Sequence of CK1ε (P49674 whole entry): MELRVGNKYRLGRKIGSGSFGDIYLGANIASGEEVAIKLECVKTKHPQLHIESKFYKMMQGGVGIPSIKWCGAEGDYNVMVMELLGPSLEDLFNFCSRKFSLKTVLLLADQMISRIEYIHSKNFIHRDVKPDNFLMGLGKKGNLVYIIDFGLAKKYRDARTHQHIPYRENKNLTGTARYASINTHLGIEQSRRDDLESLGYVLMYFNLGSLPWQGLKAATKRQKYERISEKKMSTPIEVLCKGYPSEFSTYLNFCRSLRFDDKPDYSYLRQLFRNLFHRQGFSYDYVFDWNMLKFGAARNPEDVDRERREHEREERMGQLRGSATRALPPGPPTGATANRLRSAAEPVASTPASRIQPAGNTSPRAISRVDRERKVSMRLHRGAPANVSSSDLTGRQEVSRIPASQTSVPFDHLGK

As to `Cc1nc(-c2ccncc2)sc1C(=O)Nc1cn2nc(-c3c(-c4ccc(F)cc4)nn(C)c3C3CCN(Cc4ccon4)CC3)ccc2n1` [Compound 182, N-(6-(3-(4-fluorophenyl)-5-(1-(isoxazol-3-ylmethyl)piperidin-4-yl)-1-methyl-1H-pyrazol-4-yl)imidazo [1,2-b]pyridazin-2-yl)-4-methyl-2-(pyridin-4-yl)thiazole-5-carboxamide], the IC50 came to 1.7 nM in experiment [1] and 0.9 nM in experiment [2]. For `Cn1nc(-c2ccc(F)cc2)c(-c2ccc3nc(NC(=O)c4ccnc(N5CCOCC5)c4)cn3n2)c1N1CCN(C(=O)c2ccon2)CC1` [Compound 137, N-(6-(3-(4-Fluorophenyl)-5-(4-(isoxazole-3-carbonyl)piperazin-1-yl)-1-methyl-1H-pyrazol-4-yl)imidazo[1,2-b]pyridazin-2-yl)-2-morpholinoisonicotinamide] the same measures were 1 nM and 10.1 nM. In the case of `COc1cccc(C(=O)Nc2cn3nc(-c4cn(C)nc4-c4ccc(F)cc4)ccc3n2)c1F` [Compound 59, 2-fluoro-N-(6-(3-(4-fluorophenyl)-1-methyl-1H-pyrazol-4-yl)imidazo[1,2-b]pyridazin-2-yl)-3-methoxybenzamide], the IC50 in experiment [1] was 7.8 nM; in experiment [2], 22.1 nM. As to `Cn1cc(-c2ccc3nc(NC(=O)C4CC4)cn3n2)c(-c2ccc(F)cc2)n1` [Compound 85, N-(6-(3-(4-fluorophenyl)-1-methyl-1H-pyrazol-4-yl)imidazo[1,2-b]pyridazin-2-yl)cyclopropanecarboxamide], the IC50 in experiment [1] turned out to be 7 nM; in experiment [2], 50.1 nM. As for `Cn1cc(-c2ccc3nc(NC(=O)c4ccc(C(F)(F)F)cn4)cn3n2)c(-c2ccc(F)cc2)n1` [Compound 74, N-(6-(3-(4-fluorophenyl)-1-methyl-1H-pyrazol-4-yl)imidazo[1,2-b]pyridazin-2-yl)-5-(trifluoromethyl) picolinamide], the concentration for half-maximal inhibition (IC50) came out at 34.6 nM in experiment [1] and 232 nM in experiment [2].

As for `Cn1cc(-c2ccc3nc(NC(=O)c4cc(F)cc(F)c4)cn3n2)c(-c2ccc(F)cc2)n1` [Compound 43, 3,5-difluoro-N-(6-(3-(4-fluorophenyl)-1-methyl-1H-pyrazol-4-yl)imidazo[1,2-b]pyridazin-2-yl)benzamide], the IC50 worked out at 4.8 nM in experiment [1] and 15.8 nM in experiment [2]. In the case of `CN1CCC(C(=O)Nc2cn3nc(-c4cn(C)nc4-c4ccc(F)cc4)ccc3n2)CC1` [Compound 90, N-(6-(3-(4-fluorophenyl)-1-methyl-1H-pyrazol-4-yl)imidazo[1,2-b]pyridazin-2-yl)-1-methylpiepridine-4-carboxamide], the IC50 in experiment [2] came to 135 nM.

As to `Cc1nc(-c2ccncc2)sc1C(=O)Nc1cn2nc(-c3cn(C4CC4)nc3-c3ccc(F)cc3)ccc2n1` [Compound 111, N-(6-(1-cyclopropyl-3-(4-fluorophenyl)-1H-pyrazol-4-yl)imidazo[1,2-b]pyridazin-2-yl)-4-methyl-2-(pyridin-4-yl)thiazole-5-carboxamide], the 50% inhibitory concentration (IC50) in experiment [1] stood at 6.2 nM; in experiment [2], 35 nM. For `Cc1nc(-c2ccncc2)sc1C(=O)Nc1cn2nc(-c3cn(C)nc3-c3ccc(F)cc3)ccc2n1` [Compound 4, N-(6-(3-(4-fluorophenyl)-1-methyl-1H-pyrazol-4-yl)imidazo[1,2-b]pyridazin-2-yl)-4-methyl-2-(pyridin-4-yl)thiazol-5-carboxamide], in that order: 3.7 nM and 13.7 nM. For `Cn1nc(-c2ccc(F)cc2)c(-c2ccc3nc(NC(=O)c4ccnc(F)c4)cn3n2)c1-c1ccncc1` [Compound 202, 2-Fluoro-N-(6-(3-(4-fluorophenyl)-1-methyl-5-(pyridin-4-yl)-1H-pyrazol-4-yl)imidazo[1,2-b]pyridazin-2-yl)isonicotinamide], in that order: 0.5 nM and 8.1 nM.

As to `O=C(Nc1cn2nc(-c3cn(C4CC4)nc3-c3ccc(F)cc3)ccc2n1)c1csc(-c2ccncc2)n1` [Compound 103, N-(6-(1-Cyclopropyl-3-(4-fluorophenyl)-1H-pyrazol-4-yl)imidazo[1,2-b]pyridazin-2-yl)-2-(pyridin-4-yl)thiazole-4-carboxamide], the IC50 in experiment [1] turned out to be 8.5 nM; in experiment [2], 74.9 nM. As to `Cn1cc(-c2ccc3nc(NC(=O)c4cncc(Cl)c4)cn3n2)c(-c2ccc(F)cc2)n1` [Compound 46, 5-chloro-N-(6-(3-(4-fluorophenyl)-1-methyl-1H-pyrazol-4-yl)imidazo[1,2-b]pyridazin-2-yl)nicotinamide], it took 4.1 nM to reach half-maximal inhibition in experiment [1] (IC50).

As to `Cn1cc(-c2ccc3nc(NC(=O)c4ccnc(C(C)(C)C)c4)cn3n2)c(-c2ccc(F)cc2)n1` [Compound 50, 2-(tert-butyl)-N-(6-(3-(4-fluorophenyl)-1-methyl-1H-pyrazol-4-yl)imidazo[1,2-b]pyridazin-2-yl)isonicotinamide], in experiment [2], it took 99.9 nM to reach half-maximal inhibition (IC50). As for `Cn1cc(C(=O)Nc2cn3nc(-c4cn(C)nc4-c4ccc(F)cc4)ccc3n2)cn1` [Compound 98, N-(6-(3-(4-fluorophenyl)-1-methyl-1H-pyrazol-4-yl)imidazo[1,2-b]pyridazin-2-yl)-1-methyl-1H-pyrazole-4-carboxamide], in experiment [1], inhibition was half-maximal at 2.6 nM (IC50).

In experiment [1], `Cn1nc(-c2ccc(F)cc2)c(-c2ccc3nc(NC(=O)c4ccnc(F)c4)cn3n2)c1N1CCOCC1` [Compound 143, 2-Fluoro-N-(6-(3-(4-fluorophenyl)-1-methyl-5-morpholino-1H-pyrazol-4-yl)imidazo[1,2-b]pyridazin-2-yl)isonicotinamide] registered an IC50 of 2 nM. `Cn1nc(-c2ccc(F)cc2)c(-c2ccc3nc(NC(=O)c4ccnc(F)c4)cn3n2)c1N1CCN(C(=O)C2CC2)CC1` [Compound 122, N-(6-(5-(4-(Cyclopropanecarbonyl)piperazin-1-yl)-3-(4-fluorophenyl)-1-methyl-1H-pyrazol-4-yl)imidazo[1,2-b]pyridazin-2-yl)-2-fluoroisonicotinamide]: the concentration for half-maximal inhibition (IC50) in experiment [1] was 0.5 nM. On the same count and under the same terms, next, `Cn1nc(-c2ccc(F)cc2)c(-c2ccc3nc(NC(=O)c4ccncc4)cn3n2)c1C1CCN(Cc2cscn2)CC1` [Compound 171, N-(6-(3-(4-fluorophenyl)-1-methyl-5-(1-(thiazol-4-ylmethyl)piperidin-4-yl)-1H-pyrazol-4-yl)imidazo[1,2-b]pyridazin-2-yl) isonicotinamide]: 3.6 nM. `COc1cc(C(=O)Nc2cn3nc(-c4cn(C)nc4-c4ccc(F)cc4)ccc3n2)nc(OC)n1` [Compound 39, N-(6-(3-(4-fluorophenyl)-1-methyl-1H-pyrazol-4-yl)imidazo[1,2-b]pyridazin-2-yl)-2,6-dimethoxypyrimidine-4-carboxamide] had an IC50 in experiment [2] of 75.7 nM. Same read-out and setting: next, `Cn1cc(-c2ccc3nc(NC(=O)C4CCCCC4)cn3n2)c(-c2ccc(F)cc2)n1` [Compound 87, N-(6-(3-(4-fluorophenyl)-1-methyl-1H-pyrazol-4-yl)imidazo[1,2-b]pyridazin-2-yl)cyclohexanecarboxamide]: 11.3 nM. On to `COc1ncccc1C(=O)Nc1cn2nc(-c3cn(C)nc3-c3ccc(F)cc3)ccc2n1` [Compound 77, N-(6-(3-(4-fluorophenyl)-1-methyl-1H-pyrazol-4-yl)imidazo[1,2-b]pyridazin-2-yl)-2-methoxynicotinamide], for which the half-inhibitory concentration (IC50) in experiment [1] came to 10.6 nM.
